# In article PMC3827198, “Characterisation of AmphiAmR11, an Amphioxus (Branchiostoma floridae) D2-Dopamine-Like G Protein-Coupled Receptor” (PLoS ONE, 2013):
# Counter-ions that a name gives are not always drawn.
# What was measured:
# D3-dopamine receptors = tested on: D3-dopamine receptors; design: method as in PMID 10531409, PMID 9572301; conditions: cited from earlier work
# D2-dopamine receptors = tested on: D2-dopamine receptors; design: method as in PMID 10531409, PMID 9572301; conditions: cited from earlier work
# [1] = tested on: dopamine-induced ERK1/2 activation; experiment: Effect of pertussis toxin and signalling inhibitors on agonist-induced ERK1/2 activation in AmphiAmR11-expressing CHO-K1 cells; format: cell-based, Chinese hamster; conditions: 10 µM inhibitor, 10 nM dopamine, 5 minutes
# Description: Phospho-extracellular signal-related kinase (Phospho-ERK) levels were determined essentially as described previously. Minor modifications have been described. ERK1/2 phosphorylation levels were quantified by densitometry. The developed films were scanned in and analysed using the software program, Aida. The data generated by Aida was then processed using Microsoft Excel. Values for the kinase expression and activity levels were defined as 100% in the control samples. Student’s T-test (two-tailed and unpaired) was used to test for significance.
# Figure 5 Effect of pertussis toxin and signalling inhibitors on dopamine-induced ERK1/2 activation in AmphiAmR11-expressing CHO-K1 cells. For the pertussis toxin experiment, AmphiAmR11-expressing CHO-K1 cells were pre-incubated with pertussis toxin (200 ng/ml) for 16 hours prior to serum-starvation for 2 hours in the absence of the toxin. Cells were then stimulated for 5 mins with 10 nM dopamine (open bar) or F-12 Hams control (black bar). For all other inhibitors, AmphiAmR11-expressing CHO-K1 cells were serum starved for 2 hours including incubation with 10 µM inhibitor or F-12 Hams control for the final 20 (AG1296 and AG1478) or 30 (PP2, LY294002, Ro31-8220, U0126, U73122 and U73343) minutes. Cells were then stimulated for 5 minutes with 10 nM dopamine […] in the presence of the inhibitor. Basal measurement in the absence of dopamine and inhibitor (first black bar) and the dopamine-only response in the absence of inhibitor (first open bar) are shown. (A) Representative blots from three or four independent experiments. […] Data are expressed as the mean + SEM. n = 3 - 4. DA, dopamine; PTX, pertussis toxin; Ro, Ro 31-8220; LY, LY294002.
# Figure S3. Time courses for the effect of dopamine and tyramine on ERK1/2 phosphorylation in AmphiAmR11-expressing CHO-K1 cells. (A and B) AmphiAmR11-expressing CHO-K1 cells were serum-starved for 2 hours, prior to stimulation with tyramine or dopamine at the specified concentration for the specified length of time. Equal quantities of cell lysates were separated by SDS-PAGE and analysed for pERK or tERK by Western blotting. (C and D): AmphiAmR11-expressing CHO-K1 cells were incubated with pertussis toxin (200 ng/mL) for 16 hours followed by stimulation as described for Figures A and B. (A to D) Representative blot for each condition from three to four independent experiments. (E) Summary of the quantified blots. Data are expressed as the mean ± SEM. n = 3-4. PTX, pertussis toxin; Min, minutes.
# CeDOP2L = tested on: CeDOP2L; design: method as in PMID 12887685; conditions: cited from earlier work; for Antagonist effect at invertebrate D2-like receptor CeDOP2L at high concentration: 10 µM
# DD2R = tested on: DD2R; design: method as in PMID 12391323; conditions: cited from earlier work; for Antagonist effect at invertebrate D2-like receptor DD2R at high concentration: 10 µM
# CeDOP2S = tested on: CeDOP2S; design: method as in PMID 12887685; conditions: cited from earlier work; for Antagonist effect at invertebrate D2-like receptor CeDOP2S at high concentration: 10 µM
# AmphiAmR4 = tested on: AmphiAmR4; design: method as in PMID 23183848; conditions: cited from earlier work
# AmphiAmR11 [2] = molecular target: T1, AmphiAmR11 (Branchiostoma floridae, UniProt A0PF35); experiment: Inhibition of forskolin-stimulated cAMP levels in AmphiAmR11-expressing CHO-K1 cells (agonist mode); format: cell-based; conditions: for Decrease of forskolin-stimulated cAMP levels by antagonist in the absence of agonist: 1 μM antagonist; for Agonist type at AmphiAmR11 (full or partial): cAMP assay; for Inhibition of forskolin-stimulated cAMP levels (maximal): concentration-response curves, absence of other agonist
# T1 sequence (A0PF35 entry or part of it): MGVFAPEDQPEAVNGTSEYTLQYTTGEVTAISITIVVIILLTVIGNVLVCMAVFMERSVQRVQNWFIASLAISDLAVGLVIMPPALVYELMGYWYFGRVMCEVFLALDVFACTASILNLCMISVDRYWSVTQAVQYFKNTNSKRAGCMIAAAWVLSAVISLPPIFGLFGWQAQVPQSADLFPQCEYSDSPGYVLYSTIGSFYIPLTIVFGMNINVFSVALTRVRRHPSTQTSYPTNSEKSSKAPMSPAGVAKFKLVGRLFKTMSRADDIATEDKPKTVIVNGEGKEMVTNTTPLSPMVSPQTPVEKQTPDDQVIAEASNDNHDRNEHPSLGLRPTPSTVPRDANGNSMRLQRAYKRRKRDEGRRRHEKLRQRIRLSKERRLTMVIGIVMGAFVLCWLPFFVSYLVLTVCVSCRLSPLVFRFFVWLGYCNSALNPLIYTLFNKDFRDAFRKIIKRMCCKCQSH
# Description: CHO-K1 cells were maintained in Ham’s F-12 nutrient media (Invitrogen Life Sciences) supplemented with 10% charcoal-stripped foetal bovine serum (CS-FBS) (Hyclone, Cramlington, UK), 50 U/μg penicillin/streptomycin and 4 mM L-glutamine (Invitrogen Life Sciences) in 5% CO2 at 37°C. Stably transfected cell lines were generated by the transfection of CHO-K1 cells using Lipofectamine (Invitrogen Life Sciences) as described previously [8, 9].
# cAMP levels in stably transfected CHO-K1 cells were determined as described previously [8, 9, 21], except 100 µM isobutylmethylxanthine (IBMX) was used. cAMP levels are represented as a percentage of basal samples unless otherwise stated. Student’s T-test (two-tailed and unpaired) was used to test for significance. Unless otherwise stated, all data are shown as mean ± SEM. Each data point plotted was the mean of data obtained from at least three experiments. Within each experiment three separate replicate wells were analysed for each condition and the cAMP assays on each of the wells was carried out in duplicate.
# Forskolin was used both to increase basal cAMP levels to make it easier to detect increases and decreases in cAMP levels in the same experiments and also to potentiate responses to agonists to more accurately determine their threshold effects [see 22]. A non-saturating 10 µM concentration of forskolin was used.
# Figure 1 Effect of biogenic amines and synthetic agonists on forskolin-stimulated cAMP levels in AmphiAmR11-expressing CHO-K1 cells. Cells were pre-incubated with 100 µM IBMX for 20 min, followed by incubation with 10 µM forskolin and 100 µM IBMX in the presence of increasing concentrations of various biogenic amines (A) or synthetic agonists (B) for a further 20 min. Data are expressed as the mean ± SEM. n ≥ 3.
# AmphiAmR11 [3] = molecular target: T1, AmphiAmR11; experiment: ERK1/2 phosphorylation in AmphiAmR11-expressing CHO-K1 cells (Western blotting); format: cell-based; conditions: for Effect of antagonist on ERK1/2 phosphorylation in the absence of dopamine: 1 μM antagonist
# AmphiAmR11 [4] = molecular target: T1, AmphiAmR11; experiment: Block of tyramine-induced inhibition of forskolin-stimulated cAMP levels in AmphiAmR11-expressing CHO-K1 cells; format: cell-based; conditions: 30 nM tyramine; for Block of tyramine-induced inhibition of forskolin-stimulated cAMP levels: 10 µM forskolin
# AmphiAmR11 [5] = molecular target: T1, AmphiAmR11; experiment: Block of dopamine-induced ERK1/2 activation in AmphiAmR11-expressing CHO-K1 cells by antagonists; format: cell-based; conditions: 1 µM antagonist, 10 nM dopamine, 5 min
# human 5HT1A receptor = conditions: cited from earlier work
# AmphiAmR11 [6] = molecular target: T1, AmphiAmR11; experiment: Calcium mobilisation in AmphiAmR11-expressing CHO-K1 cells (Fura-2, percentage of responding cells per field of view); format: cell-based; conditions: 3 minutes exposure; read-out: EC50 for calcium mobilisation (percentage of responding cells per field of view)
# Description: Stably transfected CHO-K1 cells were assayed for changes in intracellular calcium levels using an Olympus Cell^R imaging system and the fluorescent indicator Fura-2, as described previously, with modifications described by Bayliss et al.. At 1 minute into the experiment, a buffer control was added and at 2 minutes into the experiment, the specified concentration of agonist was added. A single coverslip of cells was used per concentration of agonist and the percentage of cells that responded per field of view was calculated. The results from each coverslip gave an n of 1 and each agonist concentration was repeated at least three times on different days.
# Figure 6 Effect of biogenic amines and calcium pathway inhibitors on calcium mobilisation in AmphiAmR11-expressing CHO-K1 cells. AmphiAmR11-expressing cells were exposed to increasing concentrations (A) or 10 nM (B) of biogenic amines for 3 minutes and the number of responding cells per field of view were calculated. Data are expressed as the mean ± SEM. n ≥ 3. FOV, field of view; DA, dopamine; TA, tyramine; NA, noradrenaline; Adr, adrenaline; OA, octopamine.
# AmphiAmR11 [7] = molecular target: T1, AmphiAmR11; experiment: cell-based; format: cell-based
# [8] = 10 µM forskolin, 100 µM IBMX, 20 min, full concentration response curves, read-out: EC50 for decrease in forskolin-stimulated cAMP levels
compound,measurement,setting,value
O=c1cc(N2CCOCC2)oc2c(-c3ccccc3)cccc12 [LY294002],Effect on D3-mediated ERK1/2 activation in CHO cells,D3-dopamine receptors,partially reduce
same,Effect on D2-mediated ERK1/2 activation in CHO cells,D2-dopamine receptors,partially reduce
same,Effect of inhibitor on dopamine-induced ERK1/2 phosphorylation,[1],significantly reduced
COC[C@H]1OC(=O)c2coc3c2[C@@]1(C)C1=C(C3=O)[C@@H]2CCC(=O)[C@@]2(C)C[C@H]1OC(C)=O [wortmannin],Effect on D3-mediated ERK1/2 activation in CHO cells,D3-dopamine receptors,partially reduce
same,Effect on D2-mediated ERK1/2 activation in CHO cells,D2-dopamine receptors,partially reduce
CN(C)CCCN1c2ccccc2Sc2ccc(Cl)cc21 [chlorpromazine],Effect on dopamine-mediated signalling via CeDOP2L,CeDOP2L,not to affect
same,Effect on dopamine-mediated signalling via DD2R,DD2R,not to affect
same,Effect on dopamine-mediated signalling via CeDOP2S,CeDOP2S,not to affect
"c1ccc2c(CC3=NCCN3)cccc2c1 [naphazoline, naphazoline hydrochloride]",Agonist activity at AmphiAmR4,AmphiAmR4,most potent agonist
same,Effect on forskolin-stimulated cAMP levels at 1 µM,"AmphiAmR11 [2]; 1 µM agonist, 10 µM forskolin, 100 µM IBMX, 20 min",most effective agonists
same,EC50,AmphiAmR11 [2]; [8],0.287 nM
same,Effect on ERK1/2 phosphorylation at 100 nM,"AmphiAmR11 [3]; 100 nM synthetic agonist, 5 min",increased the ERK1/2 phosphorylation level above that of the basal condition
same,Effect on ERK1/2 phosphorylation at 1 µM,"AmphiAmR11 [3]; 1 µM synthetic agonist, 5 min, dopamine as reference",most effective of the synthetic agonists
"CN1CCc2cc(Cl)c(O)cc2[C@@H](c2ccccc2)C1 [SCH23390, R(+)-7-chloro-8-hydroxy-3-methyl-1-phenyl-2,3,4,5-tetrahydro-^1H-3-benzazepine hydrochloride]",Effect on dopamine-mediated signalling via CeDOP2L,CeDOP2L,not to affect
same,Effect on dopamine-mediated signalling via DD2R,DD2R,not to affect
same,Effect on dopamine-mediated signalling via CeDOP2S,CeDOP2S,not to affect
same,Block of tyramine-induced inhibition of forskolin-stimulated cAMP levels,AmphiAmR11 [4]; 1 μM antagonist,no significant blocking effect
"Cl.Cl.OCCN1CCN(CC/C=C2/c3ccccc3Sc3ccc(C(F)(F)F)cc32)CC1 [flupenthixol, cis-(Z)-flupenthixol dihydrochloride]",Antagonist effect at invertebrate D2-like receptor CeDOP2L at high concentration,CeDOP2L,only a partial effect
same,Antagonist effect at invertebrate D2-like receptor DD2R at high concentration,DD2R,only a partial effect
same,Antagonist effect at invertebrate D2-like receptor CeDOP2S at high concentration,CeDOP2S,only a partial effect
same,Effect of antagonist on ERK1/2 phosphorylation in the absence of dopamine,AmphiAmR11 [3],did not exhibit any agonistic properties
same,Block of tyramine-induced inhibition of forskolin-stimulated cAMP levels,AmphiAmR11 [4]; 1 μM antagonist,no significant blocking effect
same,Block of dopamine-induced ERK1/2 activation,AmphiAmR11 [5],no significant effect
"CC(C)(C)[C@]1(O)CCN2C[C@H]3c4ccccc4CCc4cccc(c43)[C@@H]2C1 [butaclamol, (+)-butaclamol hydrochloride]",Antagonist effect at invertebrate D2-like receptor CeDOP2L at high concentration,CeDOP2L,only a partial effect
same,Antagonist effect at invertebrate D2-like receptor DD2R at high concentration,DD2R,only a partial effect
same,Antagonist effect at invertebrate D2-like receptor CeDOP2S at high concentration,CeDOP2S,only a partial effect
same,Effect of antagonist on ERK1/2 phosphorylation in the absence of dopamine,AmphiAmR11 [3],did not exhibit any agonistic properties
same,Block of tyramine-induced inhibition of forskolin-stimulated cAMP levels,AmphiAmR11 [4]; 1 μM antagonist,no significant blocking effect
same,Block of dopamine-induced ERK1/2 activation,AmphiAmR11 [5],no significant effect
"COC(=O)[C@H]1[C@H]2C[C@H]3c4[nH]c5ccccc5c4CCN3C[C@H]2CC[C@@H]1O [rauwolscine, rauwolscine hydrochloride]",Agonist activity at human 5HT1A receptor,human 5HT1A receptor,partial agonist activity
same,EC50,AmphiAmR11 [2],121 nM
same,Decrease of forskolin-stimulated cAMP levels by antagonist in the absence of agonist,AmphiAmR11 [2]; 10 µM forskolin,could inhibit forskolin-stimulated cAMP levels
same,Agonist type at AmphiAmR11 (full or partial),AmphiAmR11 [2],full agonists
same,Inhibition of forskolin-stimulated cAMP levels (maximal),AmphiAmR11 [2],greater than 90%
same,Effect of antagonist on ERK1/2 phosphorylation in the absence of dopamine,AmphiAmR11 [3],increase in ERK1/2 phosphorylation
same,Block of tyramine-induced inhibition of forskolin-stimulated cAMP levels,AmphiAmR11 [4]; 1 μM antagonist,no significant blocking effect
same,Block of dopamine-induced ERK1/2 activation,AmphiAmR11 [5],no significant effect
"COC(=O)[C@@H]1[C@H]2C[C@H]3c4[nH]c5ccccc5c4CCN3C[C@@H]2CC[C@@H]1O [yohimbine, yohimbine hydrochloride]",Agonist activity at human 5HT1A receptor,human 5HT1A receptor,partial agonist activity
same,EC50,AmphiAmR11 [2],17.1 nM
same,Decrease of forskolin-stimulated cAMP levels by antagonist in the absence of agonist,AmphiAmR11 [2]; 10 µM forskolin,could inhibit forskolin-stimulated cAMP levels
same,Agonist type at AmphiAmR11 (full or partial),AmphiAmR11 [2],full agonists
same,Inhibition of forskolin-stimulated cAMP levels (maximal),AmphiAmR11 [2],greater than 90%
same,Effect of antagonist on ERK1/2 phosphorylation in the absence of dopamine,AmphiAmR11 [3],increase in ERK1/2 phosphorylation
same,Apparent enhancement of tyramine-induced inhibition of forskolin-stimulated cAMP levels,AmphiAmR11 [4]; 1 μM antagonist,appeared to enhance
same,Block of tyramine-induced inhibition of forskolin-stimulated cAMP levels,AmphiAmR11 [4]; 1 μM antagonist,no significant blocking effect
same,Blocking effect on tyramine-induced response at reduced antagonist concentrations,AmphiAmR11 [4]; varying concentrations of antagonist,no blocking effect
same,Block of dopamine-induced ERK1/2 activation,AmphiAmR11 [5],no significant effect
"O=C(CCCN1CCC2(CC1)C(=O)NCN2c1ccccc1)c1ccc(F)cc1 [spiperone, spiperone hydrochloride]",Effect on dopamine-mediated signalling via CeDOP2L,CeDOP2L,little or no effect
same,Effect on dopamine-mediated signalling via DD2R,DD2R,little or no effect
same,Effect on dopamine-mediated signalling via CeDOP2S,CeDOP2S,little or no effect
same,Effect of antagonist on ERK1/2 phosphorylation in the absence of dopamine,AmphiAmR11 [3],did not exhibit any agonistic properties
same,Block of dopamine-induced ERK1/2 activation,AmphiAmR11 [5],no significant effect
"NCCc1ccc(O)cc1 [tyramine, tyramine hydrochloride]",EC50,AmphiAmR11 [6],767 nM
same,EC50,AmphiAmR11 [2]; [8],7.47 nM
same,EC50,AmphiAmR11 [3],18.2 nM
same,Duration of ERK1/2 phosphorylation response after the peak,AmphiAmR11 [3]; 1 µM tyramine (level by 30 minutes) or 30 nM dopamine,approximately half that of its peak at 5 minutes
same,Time of peak ERK1/2 phosphorylation,AmphiAmR11 [3]; 1 µM tyramine or 30 nM dopamine,approximately 5 minutes
same,Concentrations coupling AmphiAmR11 to an increase in cAMP levels,AmphiAmR11 [7]; after pertussis toxin,above 1 µM
same,Effect on forskolin-stimulated cAMP levels following pertussis toxin treatment,"AmphiAmR11 [7]; amines at 100 µM, pertussis toxin 200 ng/mL, 16 hours",increase in forskolin-stimulated cAMP levels
same,Concentration dependence of increase in forskolin-stimulated cAMP levels following pertussis toxin,"AmphiAmR11 [7]; pertussis toxin 200 ng/mL, 16 h, up to 100 µM",concentration-dependent effects
